Source: patent US20210254272A1, “TEXTILES HAVING ANTIMICROBIAL PROPERTIES” (Livinguard AG, priority 2015, published 2021)

System: E. coli (ATCC 25922)
Experiment: AATCC Test Method 100-2012 antibacterial activity of the treated textile, after 25 washes and 12 abrasion cycles, contact time 60 minutes
Assay type: cell-based
Conditions: for Log reduction of antimicrobial performance: 1% o.w.f; for Log reduction of antimicrobial performance in 100 GSM Polyester fabric / Log reduction of antimicrobial performance in 100 GSM cotton fabric / Log reduction of antimicrobial performance in 300 GSM Polyester fabric / Log reduction of antimicrobial performance in 300 GSM cotton fabric / Performance Test-Log reduction of antimicrobial performance: 2 min; for Performance Test-Log reduction of antimicrobial performance: pad process, single agent 5 gm/lit
Method: The antibacterial activity of the textile was tested in accordance with AATCC Test Method 100-2012. Prior to the test, the fabric was cut into coupons of 2×4 inches and washed separately 25 times, and exposed to 12 abrasion cycles, as per US EPA protocol 90072PA4 (described further below). The tests were made against E. coli (ATCC 25922). Contact time was 60 minutes, after inoculating with 10^8 CFU per coupon.

[1] = exhaust 80° C., 60 min, curing 180° C., dosage 0.1% o.w.f
[2] = exhaust 80° C., 60 min, curing 180° C., dosage 0.2% o.w.f
[3] = exhaust 80° C., 60 min, curing 180° C., dosage 0.5% o.w.f
[4] = exhaust 80° C., 60 min, curing 180° C., dosage 0.8% o.w.f
[5] = exhaust 80° C., 60 min, curing 180° C., dosage 1.0% o.w.f

## CCCC1COC(Cn2cncn2)(c2ccc(Cl)cc2Cl)O1 (stereo not drawn) [Propiconazole, propiconazole]
Exhaust 60° C., solution dosage 1% o.w.f, process time 60 min
  Log reduction of antimicrobial performance of each active ingredient: 1.7 Log
Exhaust 60° C., solution dosage 1% o.w.f, process time 90 min
  Log reduction of antimicrobial performance of each active ingredient: 1.8 Log
Exhaust 60° C., solution dosage 1% o.w.f, process time 120 min
  Log reduction of antimicrobial performance of each active ingredient: 2.2 Log
Exhaust 60° C., solution dosage 1% o.w.f, process time 180 min
  Log reduction of antimicrobial performance of each active ingredient: 2.3 Log
Exhaust 60° C., solution dosage 1% o.w.f, process time 240 min
  Log reduction of antimicrobial performance of each active ingredient: 2.11 Log
Exhaust 80° C., 60 min, curing 170° C., curing dwell time 0.5 min
  Log reduction of antimicrobial performance: 0.3 Log
Exhaust 80° C., 60 min, curing 170° C., curing dwell time 1.0 min
  Log reduction of antimicrobial performance: 0.6 Log
Exhaust 80° C., 60 min, curing 170° C., curing dwell time 1.5 min
  Log reduction of antimicrobial performance: 0.8 Log
Exhaust 80° C., 60 min, curing 170° C., curing dwell time 2.0 min
  Log reduction of antimicrobial performance: 1.3 Log
Exhaust 80° C., 60 min, curing 170° C., curing dwell time 2.5 min
  Log reduction of antimicrobial performance: 1.1 Log
Exhaust 80° C., 60 min, curing 170° C., curing dwell time 3.0 min
  Log reduction of antimicrobial performance: 0.67 Log
Exhaust 80° C., 60 min, curing 180° C., curing dwell time 0.5 min
  Log reduction of antimicrobial performance: 1.7 Log
Exhaust 80° C., 60 min, curing 180° C., curing dwell time 1.0 min
  Log reduction of antimicrobial performance: 1.8 Log
Exhaust 80° C., 60 min, curing 180° C., curing dwell time 1.5 min
  Log reduction of antimicrobial performance: 2.2 Log
Exhaust 80° C., 60 min, curing 180° C., curing dwell time 2.0 min
  Log reduction of antimicrobial performance: 3.8 Log
Exhaust 80° C., 60 min, curing 180° C., curing dwell time 2.5 min
  Log reduction of antimicrobial performance: 3.5 Log
Exhaust 80° C., 60 min, curing 180° C., curing dwell time 3.0 min
  Log reduction of antimicrobial performance: 3.4 Log
Exhaust 80° C., 60 min, curing 190° C., curing dwell time 0.5 min
  Log reduction of antimicrobial performance: 0.3 Log
Exhaust 80° C., 60 min, curing 190° C., curing dwell time 1.0 min
  Log reduction of antimicrobial performance: 0.8 Log
Exhaust 80° C., 60 min, curing 190° C., curing dwell time 1.5 min
  Log reduction of antimicrobial performance: 2.2 Log
Exhaust 80° C., 60 min, curing 190° C., curing dwell time 2.0 min
  Log reduction of antimicrobial performance: 2.88 Log
Exhaust 80° C., 60 min, curing 190° C., curing dwell time 2.5 min
  Log reduction of antimicrobial performance: 2.34 Log
Exhaust 80° C., 60 min, curing 190° C., curing dwell time 3.0 min
  Log reduction of antimicrobial performance: 1.1 Log
Exhaust 80° C., 60 min, curing temperature 100 ° C.
  Log reduction of antimicrobial performance: 0.21 Log
Exhaust 80° C., 60 min, curing temperature 120 ° C.
  Log reduction of antimicrobial performance: 0.45 Log
Exhaust 80° C., 60 min, curing temperature 140 ° C.
  Log reduction of antimicrobial performance: 0.98 Log
Exhaust 80° C., 60 min, curing temperature 160 ° C.
  Log reduction of antimicrobial performance: 1.23 Log
Exhaust 80° C., 60 min, curing temperature 165 ° C.
  Log reduction of antimicrobial performance: 1.28 Log
Exhaust 80° C., 60 min, curing temperature 170 ° C.
  Log reduction of antimicrobial performance: 1.45 Log
Exhaust 80° C., 60 min, curing temperature 175 ° C.
  Log reduction of antimicrobial performance: 2.32 Log
Exhaust 80° C., 60 min, curing temperature 180 ° C.
  Log reduction of antimicrobial performance: 2.87 Log
Exhaust 80° C., 60 min, curing temperature 185 ° C.
  Log reduction of antimicrobial performance: 2.88 Log
Exhaust 80° C., 60 min, curing temperature 190 ° C.
  Log reduction of antimicrobial performance: 2.91 Log
Exhaust 80° C., 60 min, curing temperature 195 ° C.
  Log reduction of antimicrobial performance: 2.93 Log
[1]
  Log reduction of antimicrobial performance in 100 GSM Polyester fabric: 0.59 Log
  Log reduction of antimicrobial performance in 100 GSM cotton fabric: 0.63 Log
  Log reduction of antimicrobial performance in 300 GSM Polyester fabric: 0.58 Log
  Log reduction of antimicrobial performance in 300 GSM cotton fabric: 0.64 Log
[2]
  Log reduction of antimicrobial performance in 100 GSM Polyester fabric: 1.35 Log
  Log reduction of antimicrobial performance in 100 GSM cotton fabric: 1.45 Log
  Log reduction of antimicrobial performance in 300 GSM Polyester fabric: 1.37 Log
  Log reduction of antimicrobial performance in 300 GSM cotton fabric: 1.45 Log
[3]
  Log reduction of antimicrobial performance in 100 GSM Polyester fabric: 1.71 Log
  Log reduction of antimicrobial performance in 100 GSM cotton fabric: 1.95 Log
  Log reduction of antimicrobial performance in 300 GSM Polyester fabric: 1.73 Log
  Log reduction of antimicrobial performance in 300 GSM cotton fabric: 1.95 Log
[4]
  Log reduction of antimicrobial performance in 100 GSM Polyester fabric: 2.14 Log
  Log reduction of antimicrobial performance in 100 GSM cotton fabric: 2.34 Log
  Log reduction of antimicrobial performance in 300 GSM Polyester fabric: 2.50 Log
  Log reduction of antimicrobial performance in 300 GSM cotton fabric: 2.34 Log
[5]
  Log reduction of antimicrobial performance in 100 GSM Polyester fabric: 2.75 Log
  Log reduction of antimicrobial performance in 100 GSM cotton fabric: 2.85 Log
  Log reduction of antimicrobial performance in 300 GSM Polyester fabric: 2.74 Log
  Log reduction of antimicrobial performance in 300 GSM cotton fabric: 2.88 Log
Exhaust 80° C., 60 min, dosage 1% o.w.f (test up to 5% o.w.f)
  Log reduction of antimicrobial performance of each active ingredient: 2.56 Log
Exhaust 80° C., 60 min, dosage 2% o.w.f
  Log reduction of antimicrobial performance of each active ingredient: 2.57 Log
Exhaust 80° C., 60 min, dosage 3% o.w.f
  Log reduction of antimicrobial performance of each active ingredient: 2.58 Log
Exhaust 80° C., 60 min, dosage 4% o.w.f
  Log reduction of antimicrobial performance of each active ingredient: 2.61 Log
Exhaust 80° C., 60 min, dosage 5% o.w.f
  Log reduction of antimicrobial performance of each active ingredient: 2.63 Log
Exhaust 80 ° C., solution dosage 1% o.w.f, process time 10 min
  Log reduction of antimicrobial performance of each active ingredient: 0.83 Log
Exhaust 80 ° C., solution dosage 1% o.w.f, process time 20 min
  Log reduction of antimicrobial performance of each active ingredient: 0.99 Log
Exhaust 80 ° C., solution dosage 1% o.w.f, process time 30 min
  Log reduction of antimicrobial performance of each active ingredient: 1.23 Log
Exhaust 80 ° C., solution dosage 1% o.w.f, process time 40 min
  Log reduction of antimicrobial performance of each active ingredient: 1.67 Log
Exhaust 80 ° C., solution dosage 1% o.w.f, process time 50 min
  Log reduction of antimicrobial performance of each active ingredient: 2.56 Log
Exhaust 80 ° C., solution dosage 1% o.w.f, process time 60 min
  Log reduction of antimicrobial performance of each active ingredient: 2.87 Log
Exhaust 80 ° C., solution dosage 1% o.w.f, process time 70 min
  Log reduction of antimicrobial performance of each active ingredient: 2.89 Log
Exhaust 80 ° C., solution dosage 1% o.w.f, process time 80 min
  Log reduction of antimicrobial performance of each active ingredient: 2.93 Log
Exhaust 80 ° C., solution dosage 1% o.w.f, process time 90 min
  Log reduction of antimicrobial performance of each active ingredient: 2.94 Log
Curing 120° C.
  Performance Test-Log reduction of antimicrobial performance: 0.04 Log
Curing 140° C.
  Performance Test-Log reduction of antimicrobial performance: 0.14 Log
Curing 150° C.
  Performance Test-Log reduction of antimicrobial performance: 0.22 Log
Curing 160° C.
  Performance Test-Log reduction of antimicrobial performance: 0.49 Log
